# Values quoted from earlier work in patent US20080131879A1, “Detection of Subjects at Risk For Chd By a Genotype Evaluation Associated With Serum Plant Sterols Enabling Individualized (Drug) Treatment on Demand” (University Van Maastricht, priority 2004, published 2008).
# Conditions: intestinal absorption from diet
row,SMILES,Absorption
1,CC(C)[C@H](C)CC[C@@H](C)[C@H]1CC[C@H]2[C@@H]3CC=C4C[C@@H](O)CC[C@]4(C)[C@H]3CC[C@]12C [campesterol],1.89%
2,CC[C@H](CC[C@@H](C)[C@H]1CC[C@H]2[C@@H]3CC=C4C[C@@H](O)CC[C@]4(C)[C@H]3CC[C@]12C)C(C)C [sitosterol],0.51%
